Source: PMC7556481 (PLoS Pathogens, 2020)
pEC50: −log10 of the molar value.

Molecular target: T1, C. elegans ser-7a / SER-7 (Caenorhabditis elegans, UniProt Q22895)
T1 construct: ser-7a cDNA expressed pan-neuronally (Psnb-1) in C. elegans ser-7(tm1325) null mutant
T1 sequence (Q22895 1-435): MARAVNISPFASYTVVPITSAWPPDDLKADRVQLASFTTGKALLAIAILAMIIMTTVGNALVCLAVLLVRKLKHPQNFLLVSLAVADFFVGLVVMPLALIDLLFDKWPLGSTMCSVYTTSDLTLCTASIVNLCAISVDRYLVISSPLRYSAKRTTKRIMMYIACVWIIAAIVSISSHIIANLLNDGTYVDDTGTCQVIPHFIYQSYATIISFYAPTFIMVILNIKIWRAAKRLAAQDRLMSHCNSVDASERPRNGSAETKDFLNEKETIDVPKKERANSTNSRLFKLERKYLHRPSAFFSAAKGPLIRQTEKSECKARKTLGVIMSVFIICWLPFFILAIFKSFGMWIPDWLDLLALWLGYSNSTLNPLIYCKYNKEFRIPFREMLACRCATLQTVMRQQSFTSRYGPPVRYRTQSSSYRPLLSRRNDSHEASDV
Experiment: pharyngeal pumping of cut-head preparation, C. elegans ser-7 null expressing ser-7a
Conditions: agonist; Dent's saline pH 7.4, 0.1% BSA; response dependent on SER-7

With `NCCc1c[nH]c2ccc(O)cc12` [serotonin] as the molecule, how does the pEC50 read?
The pEC50 was 6.11.
